Laboratory results reported in PubChem BioAssay AID2060616 (Molecular Pharmacology Branch, DTP, NCI, 2025).
Values joined by “and” are separate entries in the source; they are usually repeats but may differ in a detail not shown here. Equal values may be shown once. Blank lines part the entries; values can stand above or below the compound they belong to.

System: 377384-186-R-J1-PDC complex spheroid viability
Assay: Anticancer human tumor 377384-186-R-J1-PDC patient-derived pancreatic carcinoma cell line growth inhibition [CLK]
Settings: for viability, T/C: stronger effect = lower value
Text: A high-throughput screen of multi-cell type tumor spheroids was designed to identify active combinations of […] and targeted small molecules. Complex spheroids include a stromal component modeled by human endothelial cells (HUVEC) and fibroblasts modeled by human mesenchymal stem cells (MSCs). The concentration ranges selected for each drug and investigational agent were based upon clinically achievable concentrations if the clinical Cmax of the agent was known.
Compounds. The drugs and investigational agents: cirtuvivint (SM08502; NSC835563), CC-671 (NSC850746), vemurafenib (NSC761431), tapotoclax (NSC804041), sotorasib (NSC818433), adagrasib (NSC831453), MRTX-1133 (NSC836407), BAY2416964 (NSC825713), copanlisib (NSC816437), inavolisib (NSC800729), abemaciclib (NSC768073), osimertinib (NSC779217), entinostat (NSC756642), eltanexor (KPT-8602, NSC794443), venetoclax (NSC766270), ceralasertib (NSC777638), bortezomib (NSC756655), olaparib (NSC753686), talazoparib (NSC767125), alisertib (NSC759677), peposertib (NSC802822), gemcitabine (NSC613327), 5-fluorouracil (NSC19893), SN-38 (NSC673596), oxaliplatin (NSC266046), paclitaxel (NSC125973), and doxorubicin (NSC123127), were obtained from the National Cancer Institute (NCI) Developmental Therapeutics Program Chemical Repository. The FDA-approved anticancer drug set is available from the Developmental Therapeutics Program at https://dtp.cancer.gov/organization/dscb/obtaining/available plates.htm. […] The stock solutions were prepared in dimethyl sulfoxide (DMSO, Sigma-Aldrich, St. Louis, MO, cat. D2650), except for the platinum complexes which were prepared in saline (Quality Biological, Gaithersburg, MD, cat. 114-055-101), at 800-fold the tested concentration and stored at -70 degrees C prior to their use. All drugs and investigational agents were tested over a range starting from a high concentration at or near the clinical Cmax and decreasing in half-log increments. If the clinical Cmax for an agent had not been determined, the highest concentration tested was 10 microM.
Cell Culture. All cells were maintained in an incubator at 37 degrees C and 5% CO2 with 95% humidity. The PDC lines were cultured according to standard operating procedures established by the NCI PDMR. Briefly, all PDCs were thawed and cultured in Matrigel-coated flasks prepared with a working solution of 1X Ham's F-12 nutrient mix, without supplementation (Invitrogen, Waltham, MA, cat. 11765054), 100 U/mL penicillin-streptomycin (Invitrogen, cat. 15140122), and 2.5% Matrigel (Corning Inc., Corning, NY, cat. 354248) for the first three passages. The 947758-054-R-J2-PDC line was cultured in 6B/Colon 1A media, which includes advanced DMEM/F-12 (Thermo Fisher Scientific, cat. 12634028), 10 mM HEPES (Thermo Fisher Scientific, cat. 15630080), 1X GlutaMAX supplement (Thermo Fisher Scientific, cat. 35050061), 0.1 mg/mL primocin (InvivoGen, cat. ant-pm-2), 10% defined fetal bovine serum, heat inactivated (HyClone Laboratories Inc., cat. SH30070.03HI), 1.25 mM N-Acetyl-L-cysteine (Sigma-Aldrich, cat. A9165), 10 mM nicotinamide (Sigma-Aldrich, cat. N0636), 1X B-27 supplement (Thermo Fisher Scientific, cat. 17504044), 1X N-2 supplement (Thermo Fisher Scientific, cat. 17502048), and 10 microM Y-27632 dihydrochloride (Tocris Bioscience, cat. 1254). The 876862-298-R-J1-PDC was cultured in 6E media, which includes all 6B/Colon 1A media components plus 50% L-WRN conditioned media (ATCC, cat. CRL-3276), 50 ng/mL recombinant human EGF recombinant protein (hEGF; Thermo Fisher Scientific, cat. PHG0311), 10 ng/mL recombinant human fibroblast growth factor 10 (hGFG-10; PeproTech, cat. 100-26), 1 ng/mL recombinant human fibroblast growth factor 2 (hFGF-2; PeproTech, cat. 100-18B), and 1 µM prostaglandin E2 (PGE2; Tocris, cat. 2296). The 227483-062-R1-J1-PDC line was cultured in Panc media, containing all 6E components except hFGF-2, with the addition of 500 nM SB-431542 (Selleckchem, cat. S1067) and 10 nM gastrin (Tocris, cat. 3006). […]

[1] = curve of first compound, second compound 0.0316 µM
[2] = curve of first compound, second compound 0.1 µM
[3] = curve of first compound, second compound 0.316 µM
[4] = curve of first compound, second compound 1 µM
[5] = curve of first compound, second compound 3.16 µM
[6] = curve of first compound, second compound 10 µM
[7] = second compound 0.0316 µM, first compound 0.0316 µM
[8] = second compound 0.0316 µM, first compound 0.1 µM
[9] = second compound 0.0316 µM, first compound 0.316 µM
[10] = second compound 0.0316 µM, first compound 1 µM
[11] = second compound 0.0316 µM, first compound 3.16 µM
[12] = second compound 0.0316 µM, first compound 10 µM
[13] = second compound 0.1 µM, first compound 0.0316 µM
[14] = second compound 0.1 µM, first compound 0.1 µM
[15] = second compound 0.1 µM, first compound 0.316 µM
[16] = second compound 0.1 µM, first compound 1 µM
[17] = second compound 0.1 µM, first compound 3.16 µM
[18] = second compound 0.1 µM, first compound 10 µM
[19] = second compound 0.316 µM, first compound 0.0316 µM
[20] = second compound 0.316 µM, first compound 0.1 µM
[21] = second compound 0.316 µM, first compound 0.316 µM
[22] = second compound 0.316 µM, first compound 1 µM
[23] = second compound 0.316 µM, first compound 3.16 µM
[24] = second compound 0.316 µM, first compound 10 µM
[25] = second compound 1 µM, first compound 0.0316 µM
[26] = second compound 1 µM, first compound 0.1 µM
[27] = second compound 1 µM, first compound 0.316 µM
[28] = second compound 1 µM, first compound 1 µM
[29] = second compound 1 µM, first compound 3.16 µM
[30] = second compound 1 µM, first compound 10 µM
[31] = second compound 3.16 µM, first compound 0.0316 µM
[32] = second compound 3.16 µM, first compound 0.1 µM
[33] = second compound 3.16 µM, first compound 0.316 µM
[34] = second compound 3.16 µM, first compound 1 µM
[35] = second compound 3.16 µM, first compound 3.16 µM
[36] = second compound 3.16 µM, first compound 10 µM
[37] = second compound 10 µM, first compound 0.0316 µM
[38] = second compound 10 µM, first compound 0.1 µM
[39] = second compound 10 µM, first compound 0.316 µM
[40] = second compound 10 µM, first compound 1 µM
[41] = second compound 10 µM, first compound 3.16 µM
[42] = second compound 10 µM, first compound 10 µM
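Further: spheroids exposed to agents for 7 days before reading.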
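Wherever viability, T/C is given: luminescence signal used as a stand-in for viable cells.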

IC50 [1]: 434 nM
IC50 [2]: 128 nM
IC50 [3]: < 31.6 nM
IC50 [4]: < 31.6 nM
IC50 [5]: < 31.6 nM
IC50 [6]: < 31.6 nM
SMILES: Nc1ccccc1NC(=O)c1ccc(CNC(=O)OCc2cccnc2)cc1 + CNC(=O)c1ccc(Nc2nc(OC3CCCC3)c3c(-c4ccc5nc(C)oc5c4)c[nH]c3n2)c(OC)c1
viability, T/C [7]: 94.4%
viability, T/C [8]: 75.5%
viability, T/C [9]: 62.5%
viability, T/C [10]: 26.7%
viability, T/C [11]: 11.9%
viability, T/C [12]: 1.2%
viability, T/C [13]: 57.9%
viability, T/C [14]: 57.2%
viability, T/C [15]: 35.9%
viability, T/C [16]: 30.2%
viability, T/C [17]: 12.3%
viability, T/C [18]: 1.53%
viability, T/C [19]: 24.8%
viability, T/C [20]: 23.2%
viability, T/C [21]: 18%
viability, T/C [22]: 19.4%
viability, T/C [23]: 9.99%
viability, T/C [24]: 1.4%
viability, T/C [25]: 22.6%
viability, T/C [26]: 23%
viability, T/C [27]: 19.7%
viability, T/C [28]: 21.5%
viability, T/C [29]: 12.6%
viability, T/C [30]: 1.83%
viability, T/C [31]: 20.9%
viability, T/C [32]: 21.6%
viability, T/C [33]: 21.7%
viability, T/C [34]: 16.9%
viability, T/C [35]: 12.1%
viability, T/C [36]: 0.82%
viability, T/C [37]: 20.6%
viability, T/C [38]: 22.9%
viability, T/C [39]: 19%
viability, T/C [40]: 18.6%
viability, T/C [41]: 13.7%
viability, T/C [42]: 1.29%

IC50 (curve of compound): < 31.6 nM
SMILES: Nc1ccn(C2OC(CO)C(O)C2(F)F)c(=O)n1 (stereo not drawn)
viability, T/C (compound 0.0316 µM): 10.8% and 6.86%
viability, T/C (compound 0.1 µM): 4.28% and 3.83%
viability, T/C (compound 0.316 µM): 5.62% and 2.98%
viability, T/C (compound 1 µM): 2.41% and 2.75%
viability, T/C (compound 3.16 µM): 3.34% and 2.18%
viability, T/C (compound 10 µM): 2.14% and 1.73%

IC50 [1]: 299 nM
IC50 [2]: 17.4 nM
IC50 [3]: < 3.16 nM
IC50 [4]: < 3.16 nM
IC50 [5]: < 3.16 nM
IC50 [6]: < 3.16 nM
SMILES: CCN1CCN(Cc2ccc(Nc3ncc(F)c(-c4cc(F)c5nc(C)n(C(C)C)c5c4)n3)nc2)CC1 + CNC(=O)c1ccc(Nc2nc(OC3CCCC3)c3c(-c4ccc5nc(C)oc5c4)c[nH]c3n2)c(OC)c1
viability, T/C (second compound 0.0316 µM, first compound 0.00316 µM): 105%
viability, T/C (second compound 0.0316 µM, first compound 0.01 µM): 84.2%
viability, T/C [7]: 80%
viability, T/C [8]: 66.7%
viability, T/C [9]: 44.6%
viability, T/C [10]: 37.4%
viability, T/C (second compound 0.1 µM, first compound 0.00316 µM): 58.9%
viability, T/C (second compound 0.1 µM, first compound 0.01 µM): 53.9%
viability, T/C [13]: 45.8%
viability, T/C [14]: 41.1%
viability, T/C [15]: 34.4%
viability, T/C [16]: 29.3%
viability, T/C (second compound 0.316 µM, first compound 0.00316 µM): 19.5%
viability, T/C (second compound 0.316 µM, first compound 0.01 µM): 18.5%
viability, T/C [19]: 21.5%
viability, T/C [20]: 19.9%
viability, T/C [21]: 24.6%
viability, T/C [22]: 22.4%
viability, T/C (second compound 1 µM, first compound 0.00316 µM): 18.6%
viability, T/C (second compound 1 µM, first compound 0.01 µM): 23.3%
viability, T/C [25]: 20.4%
viability, T/C [26]: 20.8%
viability, T/C [27]: 20.1%
viability, T/C [28]: 23.3%
viability, T/C (second compound 3.16 µM, first compound 0.00316 µM): 20.1%
viability, T/C (second compound 3.16 µM, first compound 0.01 µM): 22.1%
viability, T/C [31]: 19.7%
viability, T/C [32]: 18.9%
viability, T/C [33]: 18.9%
viability, T/C [34]: 18.7%
viability, T/C (second compound 10 µM, first compound 0.00316 µM): 20.3%
viability, T/C (second compound 10 µM, first compound 0.01 µM): 18%
viability, T/C [37]: 16.9%
viability, T/C [38]: 17.8%
viability, T/C [39]: 22%
viability, T/C [40]: 25.9%

SMILES: C=CC(=O)N1CCN(c2nc(=O)n(-c3c(C)ccnc3C(C)C)c3nc(-c4c(O)cccc4F)c(F)cc23)C(C)C1 (stereo not drawn) + CN1CCN(c2cc(C(=O)Nc3cc4cc(-c5cnn(C)c5)ccc4cn3)ccn2)CC1
IC50 [1]: > 10000 nM
IC50 [2]: > 10000 nM
IC50 [3]: < 31.6 nM
IC50 [4]: < 31.6 nM
IC50 [5]: < 31.6 nM
IC50 [6]: < 31.6 nM
viability, T/C [7]: 95.5%
viability, T/C [8]: 101%
viability, T/C [9]: 114%
viability, T/C [10]: 131%
viability, T/C [11]: 117%
viability, T/C [12]: 101%
viability, T/C [13]: 104%
viability, T/C [14]: 92.8%
viability, T/C [15]: 110%
viability, T/C [16]: 112%
viability, T/C [17]: 116%
viability, T/C [18]: 88.3%
viability, T/C [19]: 27.9%
viability, T/C [20]: 35.2%
viability, T/C [21]: 38.1%
viability, T/C [22]: 41.4%
viability, T/C [23]: 37.6%
viability, T/C [24]: 24.7%
viability, T/C [25]: 1.29%
viability, T/C [26]: 1.17%
viability, T/C [27]: 1.31%
viability, T/C [28]: 1.24%
viability, T/C [29]: 2.37%
viability, T/C [30]: 2.29%
viability, T/C [31]: 0.53%
viability, T/C [32]: 0.78%
viability, T/C [33]: 0.7%
viability, T/C [34]: 0.78%
viability, T/C [35]: 1.84%
viability, T/C [36]: 3.69%
viability, T/C [37]: 0.44%
viability, T/C [38]: 0.59%
viability, T/C [39]: 1.65%
viability, T/C [40]: 0.86%
viability, T/C [41]: 1.07%
viability, T/C [42]: 0.98%
